Source: patent US20100256107A1, “PREPARATION COMPOSITION” (Dainippon Sumitomo Pharma Co., Ltd., priority 2007, published 2010)

Experiments:
[1] = Stability in an aqueous solution of a formulation containing sodium bicarbonate (HPLC); format: physicochemical; details: for reduction of amount of Compound A: 6 hours at 25° C.
Protocol: Multiple vials were prepared and amounts of Compound A and sodium bicarbonate indicated in Table 5 were weighed and filled in each vial. Thereto was added physiological saline (100 ml). Amounts of Compound A and its degradation, Compounds B and C were measured just after dissolution and after preservation for 6 hours at 25° C.
• column: SUMIPAX ODS-A212 (silica gel binding with octadecyl group, • particle size: 5 μm; 6.0 mmφ×15 cm) • detector: ultraviolet spectrophotometer (wavelength: 220 nm) • column temperature: constant temperature around at 25° C. • mobile phase: A solution; 5 mmol/L phosphate buffer (pH7) and acetonitrile (300:23), B solution: acetonitrile • flow rate: 1.0 mL/min. • gradient condition: as shown in Table 6
The numbers described in columns of “just after dissolution” and “after preservation for 6 hours at 25° C.” on Table 8 show area % per total peaks which appear until 55 minutes under the above HPLC conditions.

[2] = Control of coloration in an aqueous solution formulation containing sodium bicarbonate (absorbance 380 nm); format: physicochemical; details: for change in absorbance, just after dissolution / change in absorbance, preservation time 1 hr / change in absorbance, preservation time 2 hr / change in absorbance, preservation time 3 hr / change in absorbance, preservation time 4 hr / change in absorbance, preservation time 5 hr / change in absorbance, preservation time 6 hr: 25° C., 380 nm
Protocol: Multiple vials were prepared, and Compound A, imipenem and sodium bicarbonate in amounts indicated in Table 11 were weighed, respectively and each mixture was put in each vial. A physiological saline (100 ml) was added to each vial to be dissolved. In addition, to a vial containing Tienam® for infusion (0.5 g potency/vial) was added a physiological saline (100 ml). Coloration (change of color) just after dissolution and when the solution was preserved at one hour intervals for 6 hours at 25° C. were measured by absorbency.
• Conditions of measurement by spectrophotometer; • cell: quartz 12.5 mm×12.5 mm×45 mm, capacity 3.5 ml • wavelength: 380 nm • measurement temperature: 25° C. • instrument: UV-2200A (Shimadzu)
The numbers described in columns of “just after dissolution” and each “preservation time” on Table 12 show values of change in absorbance just after dissolution when measured under the above conditions.

[3] = Comp. A 0.5 g/vial + sodium bicarbonate 0.0 mg/vial in physiological saline 100 ml
[4] = Comp. A 0.5 g/vial + sodium bicarbonate 1.0 mg/vial in physiological saline 100 ml
[5] = Comp. A 0.5 g/vial + sodium bicarbonate 2.5 mg/vial in physiological saline 100 ml
[6] = Comp. A 0.5 g/vial + sodium bicarbonate 5.0 mg/vial in physiological saline 100 ml
[7] = Comp. A 0.5 g/vial + sodium bicarbonate 10 mg/vial in physiological saline 100 ml
[8] = Comp. A 0.5 g/vial + sodium bicarbonate 15 mg/vial in physiological saline 100 ml
[9] = Comp. A 0.5 g/vial + sodium bicarbonate 20 mg/vial in physiological saline 100 ml
[10] = Comp. A 0.5 g/vial + sodium bicarbonate 50 mg/vial in physiological saline 100 ml
[11] = Comp. A 0.5 g/vial + sodium bicarbonate 100 mg/vial in physiological saline 100 ml
[12] = 0.5 g/vial + sodium bicarbonate 0.0 mg/vial in physiological saline 100 ml
[13] = 0.5 g/vial + sodium bicarbonate 1.0 mg/vial in physiological saline 100 ml
[14] = 0.5 g/vial + sodium bicarbonate 2.5 mg/vial in physiological saline 100 ml
[15] = 0.5 g/vial + sodium bicarbonate 5.0 mg/vial in physiological saline 100 ml
[16] = 0.5 g/vial + sodium bicarbonate 10 mg/vial in physiological saline 100 ml
[17] = 0.5 g/vial + sodium bicarbonate 20 mg/vial in physiological saline 100 ml
[18] = 0.5 g/vial + sodium bicarbonate 50 mg/vial in physiological saline 100 ml

C[C@H]1C=C(c2csc(SC3=C(C(=O)O)N4C(=O)[C@H]([C@@H](C)O)[C@H]4[C@H]3C)n2)CN1 [Compound A, (4R,5S,6S)-6-[(1R)-1-hydroxyethyl]-4-methyl-3-({4-[(5S)-5-methyl-2,5-dihydro-1H-pyrrol-3-yl]-1,3-thiazol-2-yl}sulfanyl)-7-oxo-1-azabicyclo[3.2.0]hept-2-ene-2-carboxylic acid]
Comp. A after preservation for 6 hrs. at 25° C. [1, 3]: 95.8 area % | Comp. A just after dissolution [1, 3]: 98.8 area % | Comp. B after preservation for 6 hrs. at 25° C. [1, 3]: 3.0 area % | Comp. B just after dissolution [1, 3]: 0.7 area % | Comp. C after preservation for 6 hrs. at 25° C. [1, 3]: 0.5 area % | Comp. C just after dissolution [1, 3]: 0.0 area % | Comp. A after preservation for 6 hrs. at 25° C. [1, 4]: 96.6 area % | Comp. A just after dissolution [1, 4]: 98.9 area % | Comp. B after preservation for 6 hrs. at 25° C. [1, 4]: 2.7 area % | Comp. B just after dissolution [1, 4]: 0.7 area % | Comp. C after preservation for 6 hrs. at 25° C. [1, 4]: 0.2 area % | Comp. C just after dissolution [1, 4]: 0.0 area % | Comp. A after preservation for 6 hrs. at 25° C. [1, 5]: 96.6 area % | Comp. A just after dissolution [1, 5]: 98.9 area % | Comp. B after preservation for 6 hrs. at 25° C. [1, 5]: 2.8 area % | Comp. B just after dissolution [1, 5]: 0.7 area % | Comp. C after preservation for 6 hrs. at 25° C. [1, 5]: ≤ 0.1 area % | Comp. C just after dissolution [1, 5]: 0.0 area % | Comp. C after preservation for 6 hrs. at 25° C. ([1]; Comp. A 0.5 g/vial + sodium bicarbonate 2.5 mg/vial in physiological saline 100 ml, listed as Comp. A): 0.0 area % | Comp. A after preservation for 6 hrs. at 25° C. [1, 6]: 96.3 area % | Comp. A just after dissolution [1, 6]: 98.9 area % | Comp. B after preservation for 6 hrs. at 25° C. [1, 6]: 3.0 area % | Comp. B just after dissolution [1, 6]: 0.6 area % | Comp. C after preservation for 6 hrs. at 25° C. [1, 6]: 0.0 area % | Comp. C just after dissolution [1, 6]: 0.0 area % | Comp. A after preservation for 6 hrs. at 25° C. [1, 7]: 95.9 area % | Comp. A just after dissolution [1, 7]: 98.9 area % | Comp. B after preservation for 6 hrs. at 25° C. [1, 7]: 3.5 area % | Comp. B just after dissolution [1, 7]: 0.7 area % | Comp. C after preservation for 6 hrs. at 25° C. [1, 7]: 0.0 area % | Comp. C just after dissolution [1, 7]: 0.0 area % | Comp. A after preservation for 6 hrs. at 25° C. [1, 8]: 95.4 area % | Comp. A just after dissolution [1, 8]: 98.9 area % | Comp. B after preservation for 6 hrs. at 25° C. [1, 8]: 3.9 area % | Comp. B just after dissolution [1, 8]: 0.6 area % | Comp. C after preservation for 6 hrs. at 25° C. [1, 8]: 0.0 area % | Comp. C just after dissolution [1, 8]: 0.0 area % | Comp. A after preservation for 6 hrs. at 25° C. [1, 9]: 95.2 area % | Comp. A just after dissolution [1, 9]: 98.8 area % | Comp. B after preservation for 6 hrs. at 25° C. [1, 9]: 4.1 area % | Comp. B just after dissolution [1, 9]: 0.6 area % | Comp. C after preservation for 6 hrs. at 25° C. [1, 9]: 0.0 area % | Comp. C just after dissolution [1, 9]: 0.0 area % | Comp. A after preservation for 6 hrs. at 25° C. [1, 10]: 93.5 area % | Comp. A just after dissolution [1, 10]: 98.6 area % | Comp. B after preservation for 6 hrs. at 25° C. [1, 10]: 5.5 area % | Comp. B just after dissolution [1, 10]: 0.7 area % | Comp. C after preservation for 6 hrs. at 25° C. [1, 10]: 0.0 area % | Comp. C just after dissolution [1, 10]: 0.0 area % | Comp. A after preservation for 6 hrs. at 25° C. [1, 11]: 92.4 area % | Comp. A just after dissolution [1, 11]: 98.9 area % | Comp. B after preservation for 6 hrs. at 25° C. [1, 11]: 6.6 area % | Comp. B just after dissolution [1, 11]: 0.6 area % | Comp. C after preservation for 6 hrs. at 25° C. [1, 11]: 0.0 area % | Comp. C just after dissolution [1, 11]: 0.0 area % | reduction of amount of Compound A ([1]; sodium bicarbonate increased to 20 mg from 15 mg per Compound A 500 mg): 0.2% | reduction of amount of Compound A ([1]; sodium bicarbonate increased to 50 mg from 20 mg per Compound A 500 mg): 1.7% | change in absorbance, just after dissolution [2, 12]: 0.00 Abs | change in absorbance, preservation time 1 hr [2, 12]: 0.01 Abs | change in absorbance, preservation time 2 hr [2, 12]: 0.03 Abs | change in absorbance, preservation time 3 hr [2, 12]: 0.05 Abs | change in absorbance, preservation time 4 hr [2, 12]: 0.07 Abs | change in absorbance, preservation time 5 hr [2, 12]: 0.11 Abs | change in absorbance, preservation time 6 hr [2, 12]: 0.13 Abs | change in absorbance, just after dissolution [2, 13]: 0.00 Abs | change in absorbance, preservation time 1 hr [2, 13]: 0.00 Abs | change in absorbance, preservation time 2 hr [2, 13]: 0.01 Abs | change in absorbance, preservation time 3 hr [2, 13]: 0.02 Abs | change in absorbance, preservation time 4 hr [2, 13]: 0.04 Abs | change in absorbance, preservation time 5 hr [2, 13]: 0.06 Abs | change in absorbance, preservation time 6 hr [2, 13]: 0.08 Abs | change in absorbance, just after dissolution [2, 14]: 0.00 Abs | change in absorbance, preservation time 1 hr [2, 14]: 0.00 Abs | change in absorbance, preservation time 2 hr [2, 14]: 0.00 Abs | change in absorbance, preservation time 3 hr [2, 14]: 0.00 Abs | change in absorbance, preservation time 4 hr [2, 14]: 0.00 Abs | change in absorbance, preservation time 5 hr [2, 14]: 0.01 Abs | change in absorbance, preservation time 6 hr [2, 14]: 0.01 Abs | change in absorbance, just after dissolution [2, 15]: 0.00 Abs | change in absorbance, preservation time 1 hr [2, 15]: 0.00 Abs | change in absorbance, preservation time 2 hr [2, 15]: 0.00 Abs | change in absorbance, preservation time 3 hr [2, 15]: 0.00 Abs | change in absorbance, preservation time 4 hr [2, 15]: 0.00 Abs | change in absorbance, preservation time 5 hr [2, 15]: 0.00 Abs | change in absorbance, preservation time 6 hr [2, 15]: 0.00 Abs | change in absorbance, just after dissolution [2, 16]: 0.00 Abs | change in absorbance, preservation time 1 hr [2, 16]: 0.00 Abs | change in absorbance, preservation time 2 hr [2, 16]: 0.00 Abs | change in absorbance, preservation time 3 hr [2, 16]: 0.00 Abs | change in absorbance, preservation time 4 hr [2, 16]: 0.00 Abs | change in absorbance, preservation time 5 hr [2, 16]: 0.00 Abs | change in absorbance, preservation time 6 hr [2, 16]: 0.00 Abs | change in absorbance, just after dissolution [2, 17]: 0.00 Abs | change in absorbance, preservation time 1 hr [2, 17]: 0.00 Abs | change in absorbance, preservation time 2 hr [2, 17]: 0.00 Abs | change in absorbance, preservation time 3 hr [2, 17]: 0.00 Abs | change in absorbance, preservation time 4 hr [2, 17]: 0.00 Abs | change in absorbance, preservation time 5 hr [2, 17]: 0.00 Abs | change in absorbance, preservation time 6 hr [2, 17]: 0.00 Abs | change in absorbance, just after dissolution [2, 18]: 0.00 Abs | change in absorbance, preservation time 1 hr [2, 18]: 0.00 Abs | change in absorbance, preservation time 2 hr [2, 18]: 0.00 Abs | change in absorbance, preservation time 3 hr [2, 18]: 0.00 Abs | change in absorbance, preservation time 4 hr [2, 18]: 0.00 Abs | change in absorbance, preservation time 5 hr [2, 18]: 0.00 Abs | change in absorbance, preservation time 6 hr [2, 18]: 0.00 Abs | suppression of coloration of the solution ([2]; at least 2.5 mg (0.005 part by weight) of sodium bicarbonate per 500 mg): observed | coloration by the visual inspection compared with a solution just after dissolution ([2]; sodium bicarbonate 2.5 mg per 500 mg, physiological saline, 6 hours at 25° C.): coloration was not observed by the visual inspection
